# Assay results reported in patent publication US6649605B2, “Treatment of tension-type headaches with NMDA receptor antagonists” (Head Explorer A/S, priority 1996, dated 2003).
# “Also recorded” adds a separate entry of the source.
# Tests used:
# [1] = tested on: tension-type headache; conditions: literature reports; cited from earlier work
# [2] = tested on: migraine; conditions: literature reports; cited from earlier work
# [3] = tested on: patients with chronic tension-type headache; assay: Open labeled pilot study of prophylactic Dextromethorphan; format: in vivo, human
# Excerpt: Five patients with a diagnosis of chronic tension-type headache according to the International Headache Society (Headache Classification Committee 1988) were recruited from the outpatient headache clinic at Glostrup Hospital. There were 2 males and 3 females, and the mean age was 45.4 years (range 39-48). The mean life time duration of chronic tension-type headache was 12.2 years (range 4-25). One patient had coexisting but infrequent migraine. Exclusion criteria were; daily major medication (including prophylactic headache therapy); abuse of analgesics or alcohol; serious somatic or psychiatric diseases including depression.
# Using an open labeled design, patients fulfilled a diagnostic headache diary during at least 4 weeks run-in period to ensure the diagnostic criteria. Thereafter, the patients received Dextromethorphan (Dexofan®) tablets at 30 mg each, three times per day. The treatment period lasted 4 weeks, and during this period patients were asked to continue Faith headache diaries: and record headache intensity, frequency, duration, any medication taken and any possible adverse events. At a follow up visit at day 29-32, diaries were collected and possible adverse events and evaluation of the treatment were recorded. Due to the restricted number of patients, no statistical analysis were done. The efficacy parameters were headache intensity, frequency and duration, and intake of simple analgesics. Mean values from the run-in period were compared to those obtained during the treatment period.
# [4] = tested on: human volunteers; conditions: cited from earlier work
# [5] = molecular target: GABA B (Homo sapiens, UniProt Q9UBS5); conditions: cited from earlier work
# [6] = tested on: patients with chronic tension-type headache; assay: Open labeled pilot study of prophylactic Gabapentin; format: in vivo, human
# Excerpt: Three patients with a diagnosis of chronic tension-type headache according to the International Headache society (Headache Classification Committee 1988) were recruited from the outpatient headache clinic at Glostrup Hospital. The patients were males with a mean age of 42 years (range. 35-49). The mean life time duration of chronic tension-type headache was 16 years (range 7-21). […] Exclusion criteria were: daily major medication (including prophylactic headache therapy); abuse of analgesics or alcohol; serious somatic or psychiatric diseases including depression.
# Using an open labeled design, patients fulfilled a diagnostic headache diary during at least 4 weeks run-in period to ensure the diagnostic criteria. Thereafter, the patients received Gabapentin (Neurontin®) tablets, initially 300 mg (one tablet) per day on day one, increasing with 300 mg (1 tablet) per day to 900 mg (3 tablets) on day 3. The treatment period lasted […], and during this period patients were asked to continue with headache diaries, and record headache intensity, frequency, duration, any medication taken and any possible adverse events. At a follow, up visit at day 29-32, diaries were collected and any adverse events and evaluation of the treatment were recorded. Duo to the low number of patients, no statistical analysis were done. The primary efficacy parameters were headache intensity frequency and duration, and the mean values from the run-in period were compared to those obtained during the treatment period, […]
# [7] = tested on: GABA A; conditions: cited from earlier work
# [8] = tested on: alpha-2-subunit of a calcium channel; conditions: cited from earlier work
# [9] = 0-10 VAS intensity scale, during active treatment, mean
# [10] = 0-10 VAS intensity scale, run-in period, mean
# [11] = open labeled, no statistical analysis
# GABA B, sequence (Q9UBS5 15-961 limits assumed): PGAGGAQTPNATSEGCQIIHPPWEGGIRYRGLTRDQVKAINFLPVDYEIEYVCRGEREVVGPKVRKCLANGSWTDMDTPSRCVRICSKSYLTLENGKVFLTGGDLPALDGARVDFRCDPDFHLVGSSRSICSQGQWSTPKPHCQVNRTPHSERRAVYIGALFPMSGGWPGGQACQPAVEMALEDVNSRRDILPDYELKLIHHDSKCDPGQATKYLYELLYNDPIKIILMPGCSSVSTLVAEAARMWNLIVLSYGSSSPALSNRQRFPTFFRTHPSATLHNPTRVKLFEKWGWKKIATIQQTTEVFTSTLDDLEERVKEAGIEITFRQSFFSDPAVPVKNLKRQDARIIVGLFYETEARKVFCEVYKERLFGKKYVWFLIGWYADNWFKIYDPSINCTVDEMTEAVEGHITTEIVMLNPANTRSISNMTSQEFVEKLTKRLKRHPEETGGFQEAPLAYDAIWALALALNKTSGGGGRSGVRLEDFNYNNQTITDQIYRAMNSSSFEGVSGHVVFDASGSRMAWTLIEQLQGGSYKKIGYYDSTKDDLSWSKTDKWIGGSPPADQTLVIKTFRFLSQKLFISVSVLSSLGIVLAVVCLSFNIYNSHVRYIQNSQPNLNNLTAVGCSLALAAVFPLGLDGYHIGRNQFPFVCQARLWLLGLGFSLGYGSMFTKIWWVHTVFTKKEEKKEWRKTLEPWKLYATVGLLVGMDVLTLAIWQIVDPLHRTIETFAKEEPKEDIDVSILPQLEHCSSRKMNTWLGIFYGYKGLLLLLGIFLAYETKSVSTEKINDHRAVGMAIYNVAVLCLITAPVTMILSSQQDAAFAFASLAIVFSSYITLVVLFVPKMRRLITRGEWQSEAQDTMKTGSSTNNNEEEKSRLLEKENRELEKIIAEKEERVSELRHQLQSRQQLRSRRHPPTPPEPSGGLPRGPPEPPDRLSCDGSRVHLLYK
# GABA B, sequence (O75899 42-941 partner): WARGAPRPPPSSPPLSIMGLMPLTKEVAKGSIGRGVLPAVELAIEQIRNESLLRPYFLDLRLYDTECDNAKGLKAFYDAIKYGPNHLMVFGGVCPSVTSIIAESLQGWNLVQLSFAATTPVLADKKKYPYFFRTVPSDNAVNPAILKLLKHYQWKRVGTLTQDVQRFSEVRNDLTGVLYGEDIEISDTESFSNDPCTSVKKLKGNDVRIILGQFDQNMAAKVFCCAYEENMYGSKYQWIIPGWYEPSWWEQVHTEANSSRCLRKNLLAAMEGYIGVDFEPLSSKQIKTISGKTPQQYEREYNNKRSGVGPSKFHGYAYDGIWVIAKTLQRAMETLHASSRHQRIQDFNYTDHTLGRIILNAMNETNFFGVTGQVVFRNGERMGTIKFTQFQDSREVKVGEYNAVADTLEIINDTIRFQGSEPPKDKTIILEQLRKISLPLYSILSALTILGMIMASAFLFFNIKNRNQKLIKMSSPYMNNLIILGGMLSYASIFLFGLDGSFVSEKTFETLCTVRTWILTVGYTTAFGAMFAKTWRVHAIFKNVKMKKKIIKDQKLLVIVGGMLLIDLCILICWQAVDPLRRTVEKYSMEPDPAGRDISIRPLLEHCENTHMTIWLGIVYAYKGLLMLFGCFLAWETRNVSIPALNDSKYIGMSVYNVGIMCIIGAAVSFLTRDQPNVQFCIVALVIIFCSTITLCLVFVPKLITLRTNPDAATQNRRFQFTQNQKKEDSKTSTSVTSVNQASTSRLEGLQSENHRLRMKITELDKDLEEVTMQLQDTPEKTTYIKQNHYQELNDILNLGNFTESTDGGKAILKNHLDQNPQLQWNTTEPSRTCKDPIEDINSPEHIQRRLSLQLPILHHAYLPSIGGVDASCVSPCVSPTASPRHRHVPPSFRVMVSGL
smiles,measurement,setting,value
"CCOC(=O)Nc1ccc(NCc2ccc(F)cc2)nc1N [Flupirtin, ethyl 2-amino-6-(4-fluorobenylamino)-3-pyridylcarbamate]",Effect in tension-type headache,[1],positive effects
CNS(=O)(=O)Cc1ccc2[nH]cc(CCN(C)C)c2c1 [sumatriptan],Effect in tension-type headache,[1],not effective to a clinically relevant extent
same,Effect in migraine,[2],highly effective
COc1ccc2c(c1)[C@]13CCCC[C@@H]1[C@H](C2)N(C)CC3 [Dextromethorphan],"Headache intensity, active treatment",[3]; [9],3.6
same,"Headache intensity, run-in period",[3]; [10],4.4
same,Effect in the individual patients,[3]; 5 patients,Two patients reported a marked effect with considerable relief of headache intensity and duration within very few days of treatment; also recorded: one patient had a slight relief of headache intensity; also recorded: two patients reported no effect at all
same,Side effects,[3]; 5 patients,Four patients reported no side effects; also recorded: marked side effects with sedation was reported in one patient
same,"Frequency of headache, active treatment",[3]; active treatment,27 days per 4 weeks period
same,"Mean intake of analgesics, active treatment",[3]; active treatment,0.5 dose per day
same,Overall prophylactic effect,[3]; [11],positive prophylactic effect
same,"Frequency of headache, run-in period",[3]; run-in,28 days per 4 weeks period
same,"Mean intake of analgesics, run-in period",[3]; run-in period,1.8 dose per day
same,Decrease of frequency of headache,[3]; treatment vs run-in period,4%
same,Decrease of intake of analgesics,[3]; treatment vs run-in period,72%
same,Reduction of duration of the individual headache episode,[3]; treatment vs run-in period,11%
same,Reduction of headache intensity,"[3]; treatment vs run-in period, 30 mg three times per day, 4 weeks, 5 patients",18%
same,After sensation induced by repetitive stimuli,[4],reduce the after sensation
NCC1(CC(=O)O)CCCCC1 [Gabapentin],Affinity for GABA B,[5],fail to show affinity
same,"Headache intensity, active treatment",[6]; [9],3.6
same,"Headache intensity, run-in period",[6]; [10],5.5
same,Effect in the individual patients,[6]; 3 patients,One patient had excellent effect of Gabapentin with complete relief of the headache after 2 days treatment; also recorded: another patient had a moderate effect on headache intensity and frequency; also recorded: the third patient had no significant effect on any of efficacy parameters
same,Side effects,[6]; 3 patients,"Those two subjects with good or excellent effect reported no side effects; also recorded: sedation, vertigo and slight nausea"
same,"Mean daily intake of analgesics, active treatment",[6]; active treatment,0.3 dose per day
same,"Frequency of headache, active treatment",[6]; active treatment period,13 days per 4 weeks
same,Overall prophylactic effect,[6]; [11],positive prophylactic effect
same,"Frequency of headache, run-in period",[6]; run-in period,23.5 days per 4 weeks
same,"Mean daily intake of analgesics, run-in period",[6]; run-in period,1.1 dose per day
same,Decrease of frequency of headache,[6]; treatment vs run-in period,45%
same,Decrease of mean daily intake of analgesics,[6]; treatment vs run-in period,72%
same,Reduction of duration of the individual headache episode,[6]; treatment vs run-in period,8%
same,Decrease of headache intensity,"[6]; treatment vs run-in period, up to 900 mg per day, 3 patients",35%
same,Affinity for GABA A,[7],fail to show affinity
same,Binding affinity to the alpha-2-subunit of a calcium channel,[8],showed binding affinity
